{"source": "patent US5486525A", "about": "“Platelet activating factor antagonists: imidazopyridine indoles” (priority 1994, dated 1996)", "note": "Where a name gives a salt, the structure may show the parent alone."}
{"target": "T1, PAF receptor (Oryctolagus cuniculus, UniProt G1TEI7)", "T1 construct": "platelet membranes were prepared by centrifugation and washing; tissue Pel-Freez (Rogers, AR); host or cells: rabbit blood platelets (membranes prepared from citrated whole rabbit blood)", "T1 sequence (G1TEI7 1-342)": "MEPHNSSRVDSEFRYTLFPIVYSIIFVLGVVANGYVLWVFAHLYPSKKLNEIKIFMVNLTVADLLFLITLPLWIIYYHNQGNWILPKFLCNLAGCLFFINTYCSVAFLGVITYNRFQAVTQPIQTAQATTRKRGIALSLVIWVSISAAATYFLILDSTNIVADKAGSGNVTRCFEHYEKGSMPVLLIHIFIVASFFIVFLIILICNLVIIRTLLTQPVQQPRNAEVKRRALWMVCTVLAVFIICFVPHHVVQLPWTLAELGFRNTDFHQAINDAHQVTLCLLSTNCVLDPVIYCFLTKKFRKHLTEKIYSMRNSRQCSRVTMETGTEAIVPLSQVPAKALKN", "assay": "PAF receptor binding assay: inhibition of specific [^3 H]C18 -PAF binding to rabbit platelet membranes", "settings": "not given", "units": {"inhibition at 100 µM": "%", "Ki": "µM", "inhibition at 1 µM": "%"}}
{"smiles": "Cc1nc2ccncc2n1Cc1cccc(C(=O)c2cn(C(=O)N(C)C)c3ccccc23)c1", "note": "[Example 20, 1-N,N-Dimethylcarbamoyl-3-{3-[(3H-2-methylimidazo[4.5-c]pyrid-3-yl)methyl]benzoyl}indole]", "inhibition at 100 µM": 26}
{"smiles": "Cc1nc2cnccc2n1-c1ccc(C(=O)c2cn(C(=O)N(C)C)c3ccccc23)cc1", "note": "[Example 22, 1-N,N-Dimethylcarbamoyl-3-{4-[(1H-2-methylimidazo[4.5-c]pyrid-1-yl)]benzoyl}indole]", "Ki": 0.146}
{"smiles": "Cc1nc2ccncc2n1CC(=O)c1cn(C(=O)N(C)C)c2cc(-c3ccc(F)cc3)ccc12", "note": "[Example 23, 1-N,N-Dimethylcarbamoyl-6-(4-fluorophenyl)-3-[(3H-2-methylimidazo[4.5-c]pyrid-3-yl)methylcarbonyl]indole]", "inhibition at 1 µM": 7}
{"smiles": "Cc1nc2cnccc2n1CC(=O)c1cn(C(=O)N(C)C)c2cc(-c3ccc(F)cc3)ccc12", "note": "[Example 24, 1-N,N-Dimethylcarbamoyl-6-(4-fluorophenyl)-3-[(1H-2-methylimidazo[4.5-c]pyrid-1-yl)methylcarbonyl]indole]", "inhibition at 1 µM": 6}
{"smiles": "Cc1nc2cnccc2n1CC(=O)c1cn(C(=O)N(C)C)c2ccccc12", "note": "[Example 26, 1-N,N-Dimethylcarbamoyl-3-[(1H-2-methylimidazo[4.5-c]pyrid-1-yl)methylcarbonyl]indole]", "inhibition at 1 µM": 7}
{"smiles": "Cc1nc2cccnc2n1Cc1ccc(C(=O)c2cn(C(=O)N(C)C)c3ccccc23)cc1", "note": "[Example 27, 1-N,N-Dimethylcarbamoyl-3-{4-[(3H-2-methylimidazo[4.5-b]pyrid-3-yl)methyl]benzoyl}indole]", "Ki": 0.16}
{"smiles": "Cc1nc2ncccc2n1Cc1ccc(C(=O)c2cn(C(=O)N(C)C)c3ccccc23)cc1", "note": "[Example 28, 1-N,N-Dimethylcarbamoyl-3-{4-[(1H-2-methylimidazo[4.5-b]pyrid-1-yl)methyl]benzoyl}indole]", "Ki": 0.087}
{"smiles": "CN(C)C(=O)n1cc(C(=O)c2ccc(Cn3c(C(F)(F)F)nc4cnccc43)cc2)c2ccccc21", "note": "[Example 29]", "Ki": 0.494}
{"smiles": "CN(C)C(=O)n1cc(C(=O)c2ccc(Cn3cnc4cnccc43)cc2)c2ccccc21", "note": "[Example 30]", "Ki": 0.342}
{"smiles": "CC(C)c1nc2cnccc2n1Cc1ccc(C(=O)c2cn(C(=O)N(C)C)c3ccccc23)cc1", "note": "[Example 31]", "Ki": 0.044}
{"smiles": "CN(C)C(=O)n1cc(C(=O)c2ccc(Cn3c(-c4ccccc4)nc4cnccc43)cc2)c2ccccc21", "note": "[Example 32]", "inhibition at 1 µM": 10}
{"smiles": "CCc1nc2cnccc2n1Cc1ccc(C(=O)c2cn(C(=O)N(C)C)c3ccccc23)cc1", "note": "[Example 33]", "Ki": 0.029}
{"smiles": "COC(=O)c1cccc2c1c(C(=O)c1ccc(Cn3c(C)nc4cnccc43)c(F)c1)cn2C(=O)N(C)C", "note": "[Example 96, 1-N,N-Dimethylcarbamoyl-4-methoxycarbonyl-3-{3-fluoro-4-[(1H-2-methylimidazo[4,5-c]pyrid-1-yl)methyl]benzoyl}indole]", "Ki": 0.0077}
{"smiles": "Cc1nc2cnccc2n1Cc1ccc(C(=O)c2cn(C(=O)N(C)C)c3cccc(Br)c23)cc1", "note": "[Example 102, 1-N,N-Dimethylcarbamoyl-4-bromo-3-{4-[(1H-2-methylimidazo[4.5-c]pyrid-1-yl)methyl]benzoyl}indole]", "Ki": 0.01}
{"smiles": "C#Cc1cccc2c1c(C(=O)c1ccc(Cn3c(C)nc4cnccc43)cc1)cn2C(=O)N(C)C", "note": "[Example 107, 1-N,N-Dimethylcarbamoyl-4-ethynyl-3-{4-[(1H-2-methylimidazo[4.5-c]pyrid-1-yl)methyl]benzoyl}indole]", "Ki": 0.0006}
{"smiles": "Cc1nc2cnccc2n1Cc1ccc(C(=O)c2cn(C(=O)N(C)C)c3cccc(C(=O)N(C)C)c23)cc1", "note": "[Example 112, 1,4-di-N,N-Dimethylcarbamoyl-3-{4-[(1H-2-methylimidazo[4.5-c]pyrid-1-yl)methyl]benzoyl}indole]", "Ki": 0.15}
{"smiles": "Cc1cccc2c1c(C(=O)c1ccc(Cn3c(C)nc4cnccc43)cc1)cn2C(=O)N(C)C", "note": "[Example 122, 1-N,N-Dimethylcarbamoyl-4-methyl-3-(4-[(1H-2-methylimidazo[4.5-c]pyrid-1-yl)methyl]benzoyl}indole]", "Ki": 0.0008}
{"smiles": "COC(=O)c1cccc2c1c(C(=O)c1ccc(Cn3c(C)nc4cnccc43)cc1)cn2S(=O)(=O)N(C)C", "note": "[Example 131, 1-N,N-Dimethylsulfamoyl-4-methoxycarbonyl-3-{4-[(1H-2-methylimidazo[4.5-c]pyrid-1-yl)methyl]benzoyl}indole]", "Ki": 0.0047}
{"smiles": "COC(=O)c1cccc2c1c(C(=O)c1ccc(Cn3c(C)nc4cnccc43)cc1)cn2CC(=O)C(C)(C)C", "note": "[Example 135, 1-(1-Pinacolyl)4-methoxycarbonyl-3-{4-[(1H-2-methylimidazo[4.5-c]pyrid-1-yl)methyl]benzoyl}indole]", "Ki": 0.0013}
{"smiles": "CCOCCn1cc(C(=O)c2ccc(Cn3c(C)nc4cnccc43)cc2)c2c(Cl)cccc21", "note": "[Example 138, 1-(2-Ethoxyethyl)-4-chloro-3-{4-[(1H-2-methylimidazo[4.5-c]pyrid-1-yl)methyl]benzoyl}indole]", "Ki": 0.0022}
{"smiles": "CCc1cccc2c1c(C(=O)c1ccc(Cn3c(C)nc4cnccc43)cc1)cn2C(=O)N(C)C", "note": "[Example 143]", "Ki": 0.0009}
{"smiles": "Cc1nc2cnccc2n1Cc1ccc(C(=O)c2cn(C(=O)N(C)C)c3cccc(C#N)c23)cc1", "note": "[Example 150, 1-N,N-Dimethylcarbamoyl-4-cyano-3-{4-[(1H-2-methylimidazo[4.5-c]pyrid-1-yl)methyl]benzoyl}indole hydrochloride]", "Ki": 0.04}
{"smiles": "COC(=O)c1cccc2c1c(C(=O)c1ccc(C(C)n3c(C)nc4cnccc43)cc1)cn2C(=O)N(C)C", "note": "(centres unmarked) [Example 156, 1-N,N-Dimethylcarbamoyl-4-methoxycarbonyl-3-{4-[1-(1H-2-methylimidazo[4.5-c]pyrid-1-yl)eth-1-yl]benzoyl}indole]", "Ki": 0.019}
{"smiles": "COC(=O)c1cccc2c1c(C(=O)c1ccc(Cn3c(C(F)(F)F)nc4ccccc43)cc1)cn2C(=O)N(C)C", "note": "[Example 162, 1-N,N-Dimethylcarbamoyl-4-methoxycarbonyl-3-{4-[(1H-2-(trifluoromethyl)benzimidazolyl)methyl]benzoyl}indole]", "Ki": 0.014}
{"smiles": "COC(=O)c1cccc2c1c(C(=O)c1ccc(Cn3c(C)nc4cc(Cl)c(Cl)cc43)cc1)cn2C(=O)N(C)C", "note": "[Example 167, 1-N,N-Dimethylcarbamoyl-4-methoxycarbonyl-3-{4-[(1H-2-methyl-5,6-dichlorobenzimidazolyl)methyl]benzoyl}indole]", "Ki": 0.45}
{"target": "T1, PAF receptor", "assay": "PAF receptor binding assay: inhibition of specific [^3 H]C18 -PAF binding to rabbit platelet membranes", "settings": "Table 1; @ 1.0 μM; read-out: % Inhibition", "units": {"inhibition at 1 µM": "%"}}
{"smiles": "Cc1nc2ccncc2n1CC(=O)c1cn(C(=O)N(C)C)c2ccccc12", "note": "[Example 25, 1-N,N-Dimethylcarbamoyl-3-[(3H-2-methylimidazo[4.5-c]pyrid-3-yl)methylcarbonyl]indole]", "inhibition at 1 µM": 14}
{"target": "T1, PAF receptor", "assay": "PAF receptor binding assay: inhibition of specific [^3 H]C18 -PAF binding to rabbit platelet membranes", "settings": "Table 1; rabbit platelet membranes, 0.6 nM [^3 H]C18 -PAF, 60 minutes at room temperature; Ki by Cheng and Prusoff", "units": {"Ki": "µM"}}
{"smiles": "COC(=O)c1cccc2c1c(C(=O)c1ccc(Cn3c(C)nc4c(Cl)nccc43)cc1)cn2C(=O)N(C)C", "note": "[Example 174, 1-N,N-Dimethylcarbamoyl-4-methoxycarbonyl-3-{4-[(4-chloro-1H-2-methylimidazo[4.5-c]pyrid-1-yl)methyl]benzoyl}indole]", "Ki": 0.004}
{"target": "T1, PAF receptor", "assay": "PAF receptor binding assay: inhibition of specific [^3 H]C18 -PAF binding to rabbit platelet membranes", "settings": "Table 1; rabbit platelet membranes, 0.6 nM [^3 H]C18 -PAF, 60 minutes at room temperature; Ki by Cheng and Prusoff; read-out: Ki", "units": {"Ki": "µM"}}
{"smiles": "Cc1nc2ccncc2n1Cc1cccc(C(=O)c2c[nH]c3ccccc23)c1", "note": "[Example 19, 3-{3-[(3H-2-Methylimidazo[4.5-c]pyrid-3-yl)methyl]benzoyl}indole]", "Ki": 0.28}
{"smiles": "COC(=O)c1ccc(C(=O)OC)c2c(C(=O)c3ccc(Cn4c(C)nc5cnccc54)cc3)c[nH]c12", "note": "[Example 90, 4,7-Dimethoxycarbonyl-3-{4-[(1H-2-methylimidazo[4,5-c]pyrid-1-yl)methyl]benzoyl}indole]", "Ki": 0.0029}
{"smiles": "Cc1nc2cnccc2n1CCCN(C)CC(=O)c1cn(C(=O)N(C)C)c2cc(-c3ccc(F)cc3)ccc12", "note": "[Example 95, 6-(4-Fluorophenyl)-3-{N-[3-(1H-2-methylimidazo[4.5-c]pyrid-1-yl)propyl]sarcosyl}indole-1-carboxylic acid dimethyl amide]", "Ki": 0.13}
{"smiles": "COC(=O)c1cccc2c1c(C(=O)CCCCCn1c(C)nc3cnccc31)cn2C(=O)N(C)C", "note": "[Example 126]", "Ki": 0.062}
{"smiles": "COC(=O)c1cccc2c1c(S(=O)(=O)c1ccc(Cn3c(C)nc4cnccc43)cc1)cn2C(=O)N(C)C", "note": "[Example 141, 1-N,N-Dimethylcarbamoyl-4-methoxycarbonyl-3-{4-[(1H-2-methylimidazo[4.5-c]pyrid-1-yl)methyl]phenylsulfonyl}indole]", "Ki": 0.02}
